Patent US20050222102A1, “Treatment of rhinitis with anticholinergics alone or in combination with antihistamines, phosphodiesterase 4 inhibitors, or corticosteroids” (Sofotec GmbH & Co. KG, priority 2004, published 2005)
Structures can show the parent of a compound that is named as a salt.

How the values were obtained:
[1] = system: experimental allergic rhinitis models; experiment: experimental allergic rhinitis models; type: in vivo; conditions: for side-effects: compared with expectation; for reduction in the watery secretion: compared with what is typical for anticholinergic agents
[2] = system: animal models of asthma and rhinitis; experiment: animal models of asthma and rhinitis; conditions: in vivo
[3] = in vivo, po
[4] = water solubility; type: physicochemical

Row | water solubility [4] | Compound | side-effects [1] | reduction in the watery secretion [1] | effectiveness in animal models of asthma and rhinitis [2] | emesis and signs of nausea [3]
1 | – | C[N+]1(C)CCC(OC(=O)C(O)(c2ccccc2)C2CCCC2)C1 (racemic) [glycopyrrolate] | lower side-effects than expected | longer-lasting reduction in the watery secretion | – | –
2 | – | C[N+]1(C)CC[C@@H](OC(=O)[C@](O)(c2ccccc2)C2CCCC2)C1.[Br-] (single isomer, unassigned) [R,R-isomer, R,R-glycopyrrolate] | lower side-effects than expected | longer-lasting reduction in the watery secretion | – | –
3 | – | O=C(Nc1c(Cl)cncc1Cl)C(=O)c1cn(Cc2ccc(F)cc2)c2ccc(O)cc12 [AWD 12-281] | – | – | highly effective | devoid of emesis and signs of nausea
4 | sufficient | CN1CCCC(n2nc(Cc3ccc(Cl)cc3)c3ccccc3c2=O)CC1 (stereo not shown) [azelastine hydrochloride] | – | – | – | –
